# Patent US9896445B2, “Heterocyclic inhibitors of ERK1 and ERK2 and their use in the treatment of cancer” (Asana Biosciences, LLC, priority 2015, dated 2018)
# How the values were obtained:
# ERK2 = target: T1, ERK2 (Homo sapiens, UniProt P28482); test: ERK2 HTRF (biochemical) assay
# T1 construct: purchased Jubilant Biosys
# Method: (§1) ERK1 and ERK2 HTRF (Biochemical) Assays
# These assays employed a homogeneous time resolved fluorescence (HTRF) technique. The compounds were serially diluted by half-log with concentrations ranging from 0.0005 to 10 uM in the assay buffer (50 mM Tris pH=7.5, 1 mM EGTA, 2 mM DTT, 10 mM MgCl2, 0.1% Tween-20) and 20 uL of substrate-ATP mix [1 uM Biotin-LC-Myelin Basic Protein (MBP) derivatized Peptide (Anaspec)-24 uM ATP (Sigma)] was added to each well of the assay plate. Then 10 uL of enzyme mix [25 nM ERK1 or ERK2 (Jubilant Biosys) in assay buffer] was added to each well. The plate was incubated at room temperature for 60 min with shaking. The HTRF mix [625 nM LANCE® Ultra Europium-anti-phospho-MBP (Perkin Elmer) and 2 nM Phycolink® Streptavidin-Allophycocyanin (SA-APC) (Prozyme) in HTRF buffer (50 mM Tris-HCl pH=7.5, 100 mM NaCl, 0.1% BSA, 0.05% Tween20, 0.5 mM EDTA)] was prepared and 75 uL of this mix was added to the HTRF plate. After incubation for 60 min at room temperature, 10 uL of the reaction mixture was transferred to the HTRF assay plate and incubated for 45 min at room temperature with shaking. Plate was read using Pherastar in HTRF mode (excitation 337 nm, emission 665 & 620 nm). The IC50 values (half maximal inhibitory concentration values) were subsequently determined using a sigmoidal dose-response curve (variable slope) in GraphPad Prism® 5 software.
# ERK1 = target: T2, ERK1 (Homo sapiens, UniProt P27361); test: ERK1 HTRF (biochemical) assay
# T2 construct: purchased Jubilant Biosys
# T2 sequence (P27361 whole entry): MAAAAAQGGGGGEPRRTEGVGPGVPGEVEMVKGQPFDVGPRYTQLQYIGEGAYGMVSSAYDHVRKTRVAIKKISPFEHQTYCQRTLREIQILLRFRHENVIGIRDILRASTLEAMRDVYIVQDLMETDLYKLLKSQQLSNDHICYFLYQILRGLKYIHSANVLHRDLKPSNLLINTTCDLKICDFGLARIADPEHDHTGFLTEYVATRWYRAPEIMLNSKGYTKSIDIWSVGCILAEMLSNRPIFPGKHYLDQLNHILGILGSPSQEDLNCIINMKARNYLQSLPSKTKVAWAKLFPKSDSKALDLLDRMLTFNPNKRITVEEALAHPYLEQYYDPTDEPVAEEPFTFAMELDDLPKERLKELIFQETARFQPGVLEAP
# Method: as §1
# These assays employed a homogeneous time resolved fluorescence (HTRF) technique. […] The plate was incubated at room temperature for 60 min with shaking. […] The IC50 values (half maximal inhibitory concentration values) were subsequently determined using a sigmoidal dose-response curve (variable slope) in GraphPad Prism® 5 software.
# T1 sequence (P28482 whole entry): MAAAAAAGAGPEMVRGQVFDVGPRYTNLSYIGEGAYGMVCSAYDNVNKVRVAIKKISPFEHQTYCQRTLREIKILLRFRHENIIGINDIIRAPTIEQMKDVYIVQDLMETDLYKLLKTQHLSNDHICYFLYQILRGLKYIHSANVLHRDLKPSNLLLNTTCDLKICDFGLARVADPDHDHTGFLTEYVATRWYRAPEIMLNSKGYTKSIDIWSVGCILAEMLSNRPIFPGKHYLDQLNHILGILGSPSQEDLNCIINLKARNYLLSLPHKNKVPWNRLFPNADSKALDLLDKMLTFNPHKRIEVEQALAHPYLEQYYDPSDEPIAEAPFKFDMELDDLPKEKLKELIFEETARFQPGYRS
smiles,measurement,setting,value
"Cc1cnc(Nc2ccc(F)cc2)cc1-n1ccc(C(=O)NC(CN)c2ccc(F)c(Cl)c2)c1 (stereo not shown) [Compound 164, N-(2-amino-1-(3-chloro-4-fluoro-phenyl)ethyl)-1-(2-((4-fluorophenyl)-amino)-5-methyl-pyridin-4-yl)-1H-pyrrole-3-carboxamide]",IC50,ERK2; HTRF,≤ 0.05 µM
same,IC50,ERK1; HTRF,< 0.05 µM
"O=C(N[C@H](CO)c1cccc(Cl)c1)c1ccn(-c2ccnc(Nc3ccc(F)cc3Cl)n2)c1 [Compound 112, (S)-1-(2-((2-chloro-4-fluorophenyl)-amino)pyrimidin-4-yl)-N-(1-(3-chlorophenyl)-2-hydroxyethyl)-1H-pyrrole-3-carboxamide]",IC50,ERK2; HTRF,≤ 0.05 µM
same,IC50,ERK1; HTRF,< 0.05 µM
"Cc1cnc(NC2CCOCC2)nc1-n1cnc(C(=O)NCc2sccc2CN)c1 [Example 294, N-((3-(amino-methyl)thiophen-2-yl)methyl)-1-(5-methyl-2-((tetrahydro-2H-pyran-4-yl)amino)-pyrimidin-4-yl)-1H-imidazole-4-carboxamide]",IC50,ERK2; HTRF,≤ 0.05 µM
same,IC50,ERK1; HTRF,< 0.05 µM
"O=C(NC(CO)c1ccccc1)c1ccn(-c2ccnc(Nc3ccc4c(c3)OCO4)c2)c1 (stereo not shown) [Compound 76, 1-(2-(benzo[d][1,3]dioxol-5-ylamino)pyridin-4-yl)-N-(2-hydroxy-1-phenylethyl)-1H-pyrrole-3-carboxamide]",IC50,ERK2; HTRF,≤ 0.05 µM
same,IC50,ERK1; HTRF,< 0.05 µM
"Cc1cnc(NC2CCOCC2)nc1-n1cnc(C(=O)NCc2cccc(CO)c2Cl)c1 [Example 335, N-(2-chloro-3-(hydroxymethyl)-benzyl)-1-(5-methyl-2-((tetrahydro-2H-pyran-4-yl)amino)-pyrimidin-4-yl)-1H-imidazole-4-carboxamide]",IC50,ERK2; HTRF biochemical assay,≤ 0.05 µM
same,IC50,ERK1; HTRF biochemical assay,< 0.05 µM
"Cc1cnc(Nc2ccc3c(c2)OC(F)(F)O3)nc1-n1cnc(C(=O)NCc2cccc(Cl)c2CO)c1 [Example 332, N-(3-chloro-2-(hydroxymethyl)-benzyl)-1-(2-((2,2-difluorobenzo[d] [1,3]dioxol-5-yl)amino)-5-methylpyrimidin-4-yl)-1H-imidazole-4-carboxamide]",IC50,ERK2; HTRF biochemical assay,≤ 0.05 µM
same,IC50,ERK1; HTRF biochemical assay,< 0.05 µM
"O=C(NC(CO)c1cccc(Cl)c1)c1ccn(-c2cc(Nc3ccccc3)ncc2Cl)c1 (stereo not shown) [Compound 124, 1-(5-chloro-2-(phenylamino)pyridin-4-yl)-N-(1-(3-chlorophenyl)-2-hydroxyethyl)-1H-pyrrole-3-carboxamide]",IC50,ERK2; HTRF,≤ 0.05 µM
same,IC50,ERK1; HTRF,< 0.05 µM
"O=C(NC(CO)c1ccccc1)c1ccn(-c2ccnc(Nc3ccccc3)c2)c1 (stereo not shown) [Compound 71, N-(2-hydroxy-1-phenylethyl)-1-(2-(phenylamino)pyridin-4-yl)-1H-pyrrole-3-carboxamide]",IC50,ERK2; HTRF,≤ 0.05 µM
same,IC50,ERK1; HTRF,< 0.05 µM
"CC[C@@H](CO)Nc1ncc(C)c(-n2ccc(C(=O)NC(CO)c3cccc(Cl)c3)c2)n1 (stereo partly drawn) [Compound 146, N-(1-(3-chloro-phenyl)-2-hydroxy-ethyl)-1-(2-(((S)-1-hydroxybutan-2-yl)amino)-5-methylpyrimidin-4-yl)-1H-pyrrole-3-carboxamide]",IC50,ERK2; HTRF,≤ 0.05 µM
same,IC50,ERK1; HTRF,< 0.05 µM
"Cc1cnc(NC2CC2)nc1-n1ccc(C(=O)NC(CO)c2cccc(Cl)c2)c1 (stereo not shown) [Compound 115, N-(1-(3-chloro-phenyl)-2-hydroxy-ethyl)-1-(2-(cyclopropylamino)-5-methylpyrimidin-4-yl)-1H-pyrrole-3-carboxamide]",IC50,ERK2; HTRF,≤ 0.05 µM
same,IC50,ERK1; HTRF,< 0.05 µM
"Cc1cnc(NC2CCS(=O)(=O)C2)nc1-n1cnc(C(=O)N[C@H](CO)c2cccc(Cl)c2)c1 (stereo partly drawn) [Compound 246, N-((S)-1-(3-chlorophenyl)-2-hydroxyethyl)-1-(2-((1,1-dioxido-tetrahydrothiophen-3-yl)amino)-5-methylpyrimidin-4-yl)-1H-imidazole-4-carboxamide]",IC50,ERK2; HTRF,≤ 0.05 µM
same,IC50,ERK1; HTRF,< 0.05 µM
"Cc1cnc(Nc2ccc(F)cc2Cl)cc1-n1ccc(C(=O)NC(CO)c2ccccc2)c1 (stereo not shown) [Compound 78, 1-(2-((2-chloro-4-fluorophenyl)amino)-5-methylpyridin-4-yl)-N-(2-hydroxy-1-phenylethyl)-1H-pyrrole-3-carboxamide]",IC50,ERK2; HTRF,≤ 0.05 µM
same,IC50,ERK1; HTRF,< 0.05 µM
Cc1cnc(Nc2ccc3c(c2)OCC3)nc1-n1ccc(C(=O)NC(CO)c2ccccc2)c1 (stereo not shown) [Compound 185],IC50,ERK2; HTRF,≤ 0.05 µM
same,IC50,ERK1; HTRF,< 0.05 µM
"Cc1cnc(Nc2ccc3occc3c2)cc1-n1ccc(C(=O)NC(CO)c2ccccc2)c1 (stereo not shown) [Compound 79, 1-(2-(benzofuran-5-ylamino)-5-methylpyridin-4-yl)-N-(2-hydroxy-1-phenylethyl)-1H-pyrrole-3-carboxamide]",IC50,ERK2; HTRF,≤ 0.05 µM
same,IC50,ERK1; HTRF,0.1 to 0.5 µM
"Cc1cnc(NC2CCCCC2O)nc1-n1ccc(C(=O)NC(CO)c2ccc(F)c(Cl)c2)c1 (stereo not shown) [Compound 202, N-(1-(3-chloro-4-fluorophenyl)-2-hydroxyethyl)-1-(2-((2-hydroxy-cyclohexyl)amino)-5-methylpyrimidin-4-yl)-1H-pyrrole-3-carboxamide]",IC50,ERK2; HTRF,0.05 to 0.1 µM
same,IC50,ERK1; HTRF,0.05 to 0.1 µM
"Cc1cnc(NC2CCCOC2)nc1-n1ccc(C(=O)N[C@H](CO)c2cccc(Cl)c2)c1 (stereo partly drawn) [Compound 156, N-((S)-1-(3-chloro-phenyl)-2-hydroxy-ethyl)-1-(5-methyl-2-((tetrahydro-2H-pyran-3-yl)amino)-pyrimidin-4-yl)-1H-pyrrole-3-carboxamide]",IC50,ERK2; HTRF,≤ 0.05 µM
same,IC50,ERK1; HTRF,< 0.05 µM
"CC[C@@H](CO)Nc1ncc(C)c(-n2cnc(C(=O)N[C@H](CO)c3cccc(Cl)c3)c2)n1 [Compound 220, N-((S)-1-(3-chlorophenyl)-2-hydroxyethyl)-1-(2-(((S)-1-hydroxy-butan-2-yl)amino)-5-methylpyrimidin-4-yl)-1H-imidazole-4-carboxamide]",IC50,ERK2; HTRF,≤ 0.05 µM
same,IC50,ERK1; HTRF,< 0.05 µM
"Cc1cnc(N[C@@H]2CCOC2)nc1-n1ccc(C(=O)N[C@H](CO)c2cccc(Cl)c2)c1 [Compound 162, N-((S)-1-(3-chlorophenyl)-2-hydroxyethyl)-1-(5-methyl-2-(((R)-tetrahydrofuran-3-yl)amino)pyrimidin-4-yl)-1H-pyrrole-3-carboxamide]",IC50,ERK2; HTRF,≤ 0.05 µM
same,IC50,ERK1; HTRF,< 0.05 µM
"Cc1cc(Nc2ncc(C)c(-n3ccc(C(=O)NC(CO)c4cccc(Cl)c4)c3)n2)ccc1C1CCNCC1 (stereo not shown) [Compound 182, N-(1-(3-chloro-phenyl)-2-hydroxyethyl)-1-(5-methyl-2-((3-methyl-4-(piperidin-4-yl)phenyl)-amino)pyrimidin-4-yl)-1H-pyrrole-3-carboxamide]",IC50,ERK2; HTRF,≤ 0.05 µM
same,IC50,ERK1; HTRF,< 0.05 µM
"Cc1cnc(N[C@H]2CCOC2)nc1-n1cnc(C(=O)NCc2cccc(CO)c2Cl)c1 [Example 338, (S)-N-(2-chloro-3-(hydroxymethyl)-benzyl)-1-(5-methyl-2-((tetrahydrofuran-3-yl)amino)-pyrimidin-4-yl)-1H-imidazole-4-carboxamide]",IC50,ERK2; HTRF biochemical assay,≤ 0.05 µM
same,IC50,ERK1; HTRF biochemical assay,< 0.05 µM
"Cc1cnc(Nc2ccc3c(c2)OCO3)cc1-n1cnc(C(=O)NC(CO)c2cccc(Cl)c2)c1 (stereo not shown) [Compound 88, 1-(2-(benzo[d][1,3]dioxol-5-ylamino)-5-methylpyridin-4-yl)-N-(1-(3-chloro-phenyl)-2-hydroxy-ethyl)-1H-imidazole-4-carboxamide]",IC50,ERK2; HTRF,≤ 0.05 µM
same,IC50,ERK1; HTRF,< 0.05 µM
"Cc1cnc(NC(CO)CO)nc1-n1cnc(C(=O)N[C@H](CO)c2cccc(Cl)c2)c1 [Example 260, (S)-N-(1-(3-chlorophenyl)-2-hydroxyethyl)-1-(2-((1,3-dihydroxy-propan-2-yl)amino)-5-methylpyrimidin-4-yl)-1H-imidazole-4-carboxamide]",IC50,ERK2; HTRF,≤ 0.05 µM
same,IC50,ERK1; HTRF,< 0.05 µM
"Cc1cnc(Nc2ccc3occc3c2)nc1-n1ccc(C(=O)NC(CO)c2cccc(Cl)c2)c1 (stereo not shown) [Compound 68, 1-(2-(benzofuran-5-ylamino)-5-methylpyrimidin-4-yl)-N-(1-(3-chlorophenyl)-2-hydroxyethyl)-1H-pyrrole-3-carboxamide]",IC50,ERK2; HTRF,≤ 0.05 µM
same,IC50,ERK1; HTRF,< 0.05 µM
"Cc1cnc(Nc2ccc(F)c(C(=O)N3CCN(C)CC3)c2)nc1-n1ccc(C(=O)NC(CO)c2cccc(Cl)c2)c1 (stereo not shown) [Compound 179, N-(1-(3-chlorophenyl)-2-hydroxyethyl)-1-(2-((4-fluoro-3-(4-methylpiperazine-1-carbonyl)phenyl)amino)-5-methyl-pyrimidin-4-yl)-1H-pyrrole-3-carboxamide]",IC50,ERK2; HTRF,≤ 0.05 µM
same,IC50,ERK1; HTRF,< 0.05 µM
"COc1ccc(Nc2ncc(C)c(-n3ccc(C(=O)NC(CO)c4ccccc4)c3)n2)cc1OCCN1CCN(C)CC1 (stereo not shown) [Compound 148, N-(2-hydroxy-1-phenylethyl)-1-(2-((4-methoxy-3-(2-(4-methylpiperazin-1-yl)ethoxy)-phenyl)amino)-5-methylpyrimidin-4-yl)-1H-pyrrole-3-carboxamide]",IC50,ERK2; HTRF,≤ 0.05 µM
same,IC50,ERK1; HTRF,< 0.05 µM
"Cc1cnc(NC(C)c2ccccc2)nc1-n1ccc(C(=O)NC(CO)c2ccccc2)c1 (stereo not shown) [Compound 117, N-(2-hydroxy-1-phenylethyl)-1-(5-methyl-2-((1-phenylethyl)amino)pyrimidin-4-yl)-1H-pyrrole-3-carboxamide]",IC50,ERK2; HTRF,0.05 to 0.1 µM
same,IC50,ERK1; HTRF,0.1 to 0.5 µM
